Data: article PMC8698672, “Selective Anticancer and Antimicrobial Metallodrugs Based on Gold(III) Dithiocarbamate Complexes” (Biomedicines, 2021)

Legend:
[1] = test system: Undifferentiated Caco-2/TC7 cell; assay: Apoptosis/necrosis, Annexin V-FITC / 7-AAD flow cytometry; assay type: cell-based, human; settings: 20 μM, 24 h
Procedure: For the studies of apoptosis, using the detection of phosphatidylserine in the outer layer of the plasma membrane, an Annexin V-FITC Apoptosis Detection kit (Immunostep, Salamanca, Spain) was used. After incubation with the complexes, the cells were collected and transferred to flow-cytometry tubes. A negative control was prepared with untreated cells, which was used to define the basal level of apoptotic, necrotic, or dead cells. The staining with Annexin V-FITC and 7-Aminoactinomycin D (7-AAD) was performed according to the manufacturer’s recommendations. The cells were washed twice with temperate phosphate-buffered saline (PBS) and resuspended in 200 μL of 1x Annexin-binding buffer. After that, 2.5 μL Annexin V-FITC and 2.5 μL […] were added to each 50 μL of cell suspension. After incubation for 15 min at RT in the dark, 400 μL of 1× Annexin-binding buffer were added and analyzed by flow cytometry within 1 h. The signal intensity was measured using a Gallios Flow Cytometer (Beckman Coulter, Brea, CA, USA) and analyzed using the Kaluza Analysis Software (Beckman Coulter).
After obtaining great results from the cell viability studies, it was determined that only non-cytotoxic complexes on normal cells are good candidates as anticancer drugs, so complexes C1, C5, and C6 were selected for the following studies. Thus, we proceeded to elucidate the action mechanism of these three complexes to induce cell death. The most convenient cell death for anticancer drugs is apoptosis, since in this way no inflammation processes occur and it is carefully controlled. The apoptotic way is normally characterized by several morphological changes in the cell membrane, by which phosphatidylserine (PS) is exposed, moving from the inner part to the outer surface of the membrane. Thanks to this translocation, Annexin V (FITC-conjugated) can interact selectively with the PS, differentiating healthy cells from apoptotic cells. Besides, cells undergoing late apoptosis stages and necrotic cells present deep damage in the membrane that makes 7-aminoactinomycin D (7-AAD) access the nucleus. Therefore, by using flow cytometry, all different cell populations can be distinguished.
Figure 4 Undifferentiated Caco-2/TC7 cell apoptotic-state (a) and necrotic-state (b) analysis after 24 h of incubation with C1, C5, and C6 (20 µM).

[2] = Stability in phosphate buffer (pH 7.4, 37 °C) followed by UV–Vis over 24 h; assay type: physicochemical; settings: 50 µM
Procedure: (§1) The stability of the gold complexes was analyzed by absorption UV spectroscopy. UV–Vis absorption spectra of the complexes were recorded on a Thermo Scientific spectrophotometer (Madrid, Spain). Solutions of C1–6 (5 × 10^−5 M) in 10 mM phosphate buffer (pH = 7.4, 137 mM NaCl) were prepared from 20 mM DMSO solutions of the complexes and thereafter monitored by measuring the electronic spectra over 24 h at 37 °C. To evaluate the stability in the presence of biological reductants, all complexes were pre-solved in a minimum amount of DMSO and then diluted in 10 mM phosphate buffer (pH 7.4, 20 mM NaCl) to a final concentration of 10 µM [41]. All experiments were measure on a quartz microplate. Studies with L-glutathion reduced (GSH) and ascorbic acid (AsA) were conducted by increasing the final concentration of 0 to 50 µM (GSH) and from 0–20 µM for AsA.
Due to the aqueous nature of the bloodstream, studies to understand the behavior of our complexes in such an environment were considered necessary in order to determine the stability in simulated physiological conditions, pH = 7.4 and 37 °C. […] Besides, in the cases of complexes C1–4, a low-intensity broad band was detected (322 nm) (Figure 2 and Figure S3). […]
This is usually associated with the formation of Au(III)-OH bonds, increasing the water solubility and, consequently, the intensity of absorbance. […]

[3] = Stability in the presence of reduced L-glutathione (GSH), UV–Vis; assay type: physicochemical; settings: GSH 0–50 µM, PBS, 37 °C, 24 h
Procedure: as §1
This is usually associated with the formation of Au(III)-OH bonds, increasing the water solubility and, consequently, the intensity of absorbance. […] We observed that our complexes were stable with the addition of GSH over 24 h, even in a high excess of GSH to Au(III) complexes (50 vs. 16 µM) (Figure S4), since no evidence of decomposition or new bands was detected. […]

Row | SMILES | necrosis [1] | percentage of cells in apoptosis vs control [1] | Stability in PBS (UV–Vis spectra over time) [2] | Stability towards GSH (UV–Vis spectra) [3]
1 | Cc1ccc(-c2ccccn2)[c]([Au+][S]C(=S)N(C)C)c1.F[P-](F)(F)(F)(F)F [Complex C1, [Au(tpy)(dmdtc)] PF6] | did not die because of necrosis | no significant differences | absence of new bands around 550 nm | 
2 | Cc1ccc2[c](c1)[Au-]1([S]C(N(Cc3ccccc3)Cc3ccccc3)=[S+]1)[n+]1ccccc1-2.F[P-](F)(F)(F)(F)F (stereo not shown) [Complex C5, [Au(tpy)(dbdtc)]PF6] | did not die because of necrosis | no significant differences | slight increase in the intensity of 328 nm band | 
3 | CN(C)C(=S)[S][Au+][c]1ccccc1-c1ccccn1.F[P-](F)(F)(F)(F)F [Complex C2, [Au(ppy)(dmdtc)]PF6] |  |  |  | slight changes in intensity
4 | F[P-](F)(F)(F)(F)F.S=C([S][Au+][c]1ccccc1-c1ccccn1)N(Cc1ccccc1)Cc1ccccc1 [Complex C6, [Au(ppy)(dbdtc)]PF6] | did not die because of necrosis | no significant differences |  | 
5 | CCN(CC)C(=S)[S][Au+][c]1cc(C)ccc1-c1ccccn1.F[P-](F)(F)(F)(F)F [Complex C3, [Au(tpy)(dedtc)]PF6] |  |  |  | slight changes in intensity
